Test results: ChEMBL document CHEMBL1148793, “Influence of conformation on GRIND-based three-dimensional quantitative structure-activity relationship (3D-QSAR)” (J Med Chem, 2007)

Each molecule was assayed against T1, Lanosterol synthase (Homo sapiens, UniProt P48449) (assay: Inhibition of oxidosqualene cyclase).
T1 sequence (P48449 whole entry): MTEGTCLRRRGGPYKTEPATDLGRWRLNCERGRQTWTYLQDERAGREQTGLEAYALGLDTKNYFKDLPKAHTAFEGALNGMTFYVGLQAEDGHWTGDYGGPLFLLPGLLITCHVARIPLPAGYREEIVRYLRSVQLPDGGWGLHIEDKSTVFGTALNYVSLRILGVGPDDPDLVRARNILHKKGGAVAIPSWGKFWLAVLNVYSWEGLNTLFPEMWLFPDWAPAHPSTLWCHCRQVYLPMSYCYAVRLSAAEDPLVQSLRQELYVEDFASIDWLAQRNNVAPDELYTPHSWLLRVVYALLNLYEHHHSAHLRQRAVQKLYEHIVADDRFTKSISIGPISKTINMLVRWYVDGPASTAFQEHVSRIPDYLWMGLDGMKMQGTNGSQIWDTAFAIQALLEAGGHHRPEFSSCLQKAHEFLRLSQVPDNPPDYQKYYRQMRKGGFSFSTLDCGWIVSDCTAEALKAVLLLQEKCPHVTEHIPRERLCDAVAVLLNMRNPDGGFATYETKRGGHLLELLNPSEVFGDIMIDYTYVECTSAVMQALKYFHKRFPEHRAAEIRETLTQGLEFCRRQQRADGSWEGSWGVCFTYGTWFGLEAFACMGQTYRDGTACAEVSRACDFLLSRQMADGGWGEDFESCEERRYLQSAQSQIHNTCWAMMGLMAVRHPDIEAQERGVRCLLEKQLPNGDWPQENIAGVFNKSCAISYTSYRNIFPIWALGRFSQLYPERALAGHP
`CN(C/C=C/COc1ccc(C(=O)c2ccc(Br)cc2)cn1)C1CC1` showed an IC50 of 19.1 nM. Work on `CN(CCCCCCOc1ccc(C(=O)c2ccc(Br)cc2)cc1)CC1CC1` yielded an IC50 of 31.6 nM. `C=CCN(C)CCCCCCOc1ccc2c(c1)S(=O)(=O)C=C2c1ccc(Br)cc1` was tested, and the IC50 was 7.76 nM. With `C=CCN(C)CCCCCCOc1ccc2c(c1)c(C)nn2C` the IC50 was 240 nM.
